This assay has as its target Csd4 (Helicobacter pylori, UniProt B5ZAD9). As to the kind of experiment: crystal structure at […] Å. In kind it is biochemical.

Each structure is given as a SMILES string.

In turn, `CC(=O)N[C@H](CCP(=O)(O)CC(CCC[C@@H](N)C(=O)O)C(=O)O)C(=O)O` (mixture of isomers) [compound 1, inhibitor 1] displayed a Ki of 1500 ± 300 nM.

Broadly, the Ki is the equilibrium dissociation constant of an inhibitor or competing ligand from its target. Low values mean higher affinity, high ones lower affinity.

The record behind these values is article PMC4849550 (ACS chemical biology, 2016).
